Measured values taken from patent US12282026B2, “Method for screening personalized intestinal environment-improving material and composition therefor” (HEM PHARMA INC., priority 2019, dated 2025).

Test system: feces samples
Format: cell-based, human

In the case of Clostridium butyricum [CB], the “change in amount of butyrate” value is reported as “increases significantly”.
